# Source: US20140017223A1, “Pharmaceutical Compositions Comprising A Pancreatic Enzyme Preparation With Viral Infectivity Reduced Below A Significant Level And Methods Of Preparing And Using The Same” (Aptalis Pharma Canada Inc., priority 2010, published 2014)
# Values joined by “and” are separate entries in the source; they are usually repeats but may differ in a detail not shown here. Equal values may be shown once.
# Experiments:
# [1] = test system: amylase; assay: Amylase activity of pancrelipase after BPL treatment, freezing and lyophilization (USP 31 method); type: biochemical; conditions: for Loss of Amylase Activity: pancrelipase, freezing, lyophilization, precision 5-10%
# Procedure: (§1) Enzymatic activity for the enzymes of a PEP (e.g., proteases, lipases, and amylases) can be determined, for example, by using the United States Pharmacopeia (USP) monographed methods (The United States Pharmacopeia and the National Formulary (USP 31/NF 26). 2008. Rockville (MD): United States Pharmacopeial Convention, Inc.).
# (§2) The samples c-d from all the experiments were tested for lipase, protease, and amylase enzymatic activity using USP 31 monographed methods. See Example 11 and Table 11.
# (§3) Table 11 presents the lipase, protease, and amylase activity for aliquots of the pancrelipase after BPL treatment for 30 min at 25° C. followed by freezing and lyophilization (same treatment as for samples in Example 10).
# [2] = test system: lipase; assay: Lipase activity of pancrelipase after BPL treatment, freezing and lyophilization (USP 31 method); type: biochemical; conditions: for Loss of Lipase Activity: pancrelipase, freezing, lyophilization, precision 5-10%
# Procedure: as §1, §2, §3
# [3] = test system: PPV; assay: Inactivation of PPV by BPL (30 min, 25° C.), BPL then inactivated with sodium thiosulfate (Example 9); type: cell-based, porcine parvovirus (PPV); conditions: thiosulfate quench
# Procedure: (§4) 4.5 g pancrelipase (PEP) powder was dissolved in 44 ml ice cold 100 mM Tris (pH=8.3) by frequently mixing a 50-ml plastic tube that was kept on ice most of the time except when shaking. The dissolved sample was spiked with 1 ml (2×0.5 ml) PPV stock (prepared at the Institut National de la Recherche Scientifique, Québec, Canada using standard protocols (Arella et al., Physicichemical properties, production, and purification of parvoviruses. 1990, In Tijssen, P. (ed.), CRC handbook of parvoviruses. Boca Raton, Fla.: CRC Press, 11-30)) 10^7 FFID50/ml; see Example 8 and Table 8) and was mixed for another 10 minutes.
# (§5) Three aliquots of the dissolved pancrelipase were transferred into tubes (A-C) and kept on ice while (A) no BPL—the control), (B) (0.4 vol % BPL), or (C) (0.8 vol % BPL) was added to them. After a brief mixing by a vortex machine, the tubes were incubated for 30 minutes at 25° C. At the end of the incubation, the tubes were transferred on to ice and immediately four aliquots were transferred from each experimental condition into new tubes (a-d). These tubes were placed into the mixture of acetone/dry ice for fast freezing. Later, the samples were stored at −80° C.
# From the remaining solutions, aliquots from each experiment (using triplicates) were diluted 100 times in cell culture medium containing sodium thiosulfate and supplemented with traces of chloroform. Samples were briefly mixed and kept at 4° C. for at least 6 hours before further dilution for the FFID50 infectivity determination. See Example 9.
# (§6) The experiment above was repeated two more times (altogether: experiments 1-3).
# Table 9 presents the result of the inactivation of PPV by BPL for 30 min at 25° C. and subsequent inactivation of the BPL by incubating the BPL-containing PEP solutions with sodium thiosulfate for at least 6 hours at 4° C. As discussed above, three independent experiments with BPL inactivation after PPV spiking were followed by inactivation of BPL by sodium thiosulfate (3 parallels for each experiment).
# [4] = test system: Endogenous PPV; assay: Inactivation of endogenous PPV of PEP by BPL, chloroform/PEG extraction method (Example 4); type: cell-based, porcine parvovirus (PPV); conditions: for Detected PPV Titer: 0*=below detection limit of 63 FFID50/g PEP
# Procedure: Pancrelipase powders from 2 different lots were each dissolved in 100 mM Tris, pH=8.3, at a concentration of 100 mg/ml. Two ml non-purified PPV viral stock (prepared using standard protocols (Arella et al., Physicichemical properties, production, and purification of parvoviruses. 1990, In Tijssen, P. (ed.), CRC handbook of parvoviruses. Boca Raton, Fla.: CRC Press, 11-30)) were added to 38 ml of the pancrelipase solution. The virus was mixed with the PEP using slow shaking at room temperature for one day. Aliquots were taken from the PPV-spiked pancrelipase stocks and each was incubated with different concentrations of BPL (available from Sigma-Aldrich, St. Louis, Mo.) (except the control) for 48 hours at room temperature (20° C.). The level of viral inactivation was measured by the titration of PPV infectivity using serial dilutions of 1,000 times or more since the titer of spiked virus was high. Determination of the FFID50 was performed using the fluorescence assay as described in the PPV FFID-infectivity assay of U.S. Patent Publication No. 2009/0226414.
# The experiment described in Example 1 was repeated except no additional PPV was added. Like Example 3, the infectivity assay was performed after PEG/chloroform purification.
# [5] = test system: PPV; assay: Inactivation of PPV by BPL (30 min, 25° C.) measured from frozen and lyophilized samples (Example 10); type: cell-based, porcine parvovirus (PPV)
# Procedure: as §4, §5, §6
# The frozen samples were lyophilized at −45° C. for two days, and the pancrelipase powders were kept at 4-10° C. Samples a-b from all the experiments were dissolved in water. Infectivity measurements were done with diluted samples using the 400 times diluted samples as the lowest dilution step to determine the FFID50. To easily compare the results for the different experiments, all of the obtained infectivity data were converted to specific infectivity (FFID50/gram PEP). See Example 10 and Table 10.
# Inactivation results for PEP samples containing PPV inactivated by BPL at 25° C. for 30 min which was subsequently inactivated by freezing followed by lyophilization are presented in Table 10.
# [6] = lyophilized samples treated with 0.4% BPL and 0.8% BPL
# [7] = PEP # 1, endogenous PPV 3.20 × 10^3, 0.10% (v/v) BPL
# [8] = PEP # 1, endogenous PPV 3.20 × 10^3, 0.25% (v/v) BPL
# [9] = PEP # 2, endogenous PPV 0.10 × 10^3, 0.04% (v/v) BPL
# [10] = PEP # 2, endogenous PPV 0.10 × 10^3, 0.10% (v/v) BPL
# [11] = PEP # 2, endogenous PPV 0.10 × 10^3, 0.25% (v/v) BPL
# [12] = PEP # 3, endogenous PPV 6.40 × 10^3, 0.10% (v/v) BPL
# [13] = PEP # 3, endogenous PPV 6.40 × 10^3, 0.25% (v/v) BPL
# [14] = PEP # 4, endogenous PPV 0.20 × 10^3, 0.04% (v/v) BPL
# [15] = PEP # 4, endogenous PPV 0.20 × 10^3, 0.10% (v/v) BPL
# [16] = PEP # 4, endogenous PPV 0.20 × 10^3, 0.25% (v/v) BPL
structure (smiles),measurement,setting,value
"O=C1CCO1 [BPL, Beta-propiolactone]",Amylase activity maintained,[1]; [6],maintained the majority
same,Loss of Amylase Activity,[1]; 0.4% BPL 30 min 25° C.,11.40%
same,Loss of Amylase Activity,[1]; 0.8% BPL 30 min 25° C.,28.22%
same,Lipase activity maintained,[2]; [6],maintained the majority
same,Loss of Lipase Activity,[2]; 0.4% BPL 30 min 25° C.,19.79%
same,Loss of Lipase Activity,[2]; 0.8% BPL 30 min 25° C.,26.40%
same,Mean Infectivity ± SD,"[3]; 0.4% BPL, 30 min 25° C.",2.63 ± 6.86 × 10^4 FFID50/g
same,PPV Titer reduction,"[3]; 0.4% BPL, 30 min 25° C.",0.65 × 10^2 FFID50/g
same,Average Results per Sample,"[3]; 0.4% BPL, 30 min 25° C., experiments B1-B3",2.32 × 10^4 FFID50/g and 2.15 × 10^4 FFID50/g and 3.42 × 10^4 FFID50/g
same,"Results (PPV infectivity, single determinations)","[3]; 0.4% BPL, 30 min 25° C., experiments B1-B3, 3 parallels each",2.50 × 10^4 FFID50/g and 1.98 × 10^4 FFID50/g and 3.14 × 10^4 FFID50/g and 3.96 × 10^4 FFID50/g
same,Reduction of virus infectivity,"[3]; 0.4 vol % BPL, room temperature, 30 minutes",more than 60 times
same,Mean Infectivity ± SD,"[3]; 0.8% BPL, 30 min 25° C.",5.25 ± 5.25 × 10^3 FFID50/g
same,PPV Titer reduction,"[3]; 0.8% BPL, 30 min 25° C.",0.31 × 10^4 FFID50/g
same,Inactivation of PPV,"[3]; 0.8% BPL, room temperature, 30 minutes",three magnitudes of order
same,Detected PPV Titer,"[4]; PEP # 1, endogenous PPV 3.20 × 10^3, 0.04% (v/v) BPL",0.50 × 10^2 FFID50/g
same,PPV Titer reduction,[4]; [7],10^3 FFID50/g
same,Detected PPV Titer,[4]; [7],< 0* FFID50/g
same,PPV Titer reduction,[4]; [8],10^3 FFID50/g
same,Detected PPV Titer,[4]; [8],< 0* FFID50/g
same,PPV Titer reduction,[4]; [9],10^3 FFID50/g
same,Detected PPV Titer,[4]; [9],< 0* FFID50/g
same,PPV Titer reduction,[4]; [10],10^3 FFID50/g
same,Detected PPV Titer,[4]; [10],< 0* FFID50/g
same,PPV Titer reduction,[4]; [11],10^3 FFID50/g
same,Detected PPV Titer,[4]; [11],< 0* FFID50/g
same,Detected PPV Titer,"[4]; PEP # 3, endogenous PPV 6.40 × 10^3, 0.04% (v/v) BPL",4.00 × 10^2 FFID50/g
same,PPV Titer reduction,[4]; [12],10^3 FFID50/g
same,Detected PPV Titer,[4]; [12],0.07 × 10^2 FFID50/g
same,PPV Titer reduction,[4]; [13],10^3 FFID50/g
same,Detected PPV Titer,[4]; [13],< 0* FFID50/g
same,PPV Titer reduction,[4]; [14],10^3 FFID50/g
same,Detected PPV Titer,[4]; [14],< 0* FFID50/g
same,PPV Titer reduction,[4]; [15],10^3 FFID50/g
same,Detected PPV Titer,[4]; [15],< 0* FFID50/g
same,PPV Titer reduction,[4]; [16],10^3 FFID50/g
same,Detected PPV Titer,[4]; [16],< 0* FFID50/g
same,Reduction of PPV titer,[5]; 0.4% BPL,0.27 × 10^3 FFID50/g
same,Reduction of PPV titer,[5]; 0.8% BPL,1.55 × 10^6 FFID50/g
same,Average Results (per sample a/b),"[5]; 0.8% BPL, 0* means under detection limit",< 0* FFID50/g
same,Average Results (per experiment),"[5]; 0.8% BPL, experiments C1-C3, 0* means under detection limit",< 0* FFID50/g
same,PPV infectivity (single determinations),"[5]; 0.8% BPL, samples C1a-C3b, 0* means under detection limit",< 0* FFID50/g
